These results are taken from patent US6699825B2, “Acidic hard-surface antimicrobial cleaner” (S.C. Johnson & Son, Inc., priority 2001, dated 2004).

One data set relates to Staphylococcus aureus. The data set is described as follows: EPA Non-Food Contact Sanitizer Test DIS/TSS-10, glass slide, 5% fetal bovine serum. The data set is classed as cell-based. The note with it: S. aureus; dilute aqueous acidic solution; 1-minute contact. The protocol: (§1) Low-residue hard surface cleaner formulations of the present invention were evaluated for sanitizing efficacy under the United States Environmental Protection Agency's Non-Food Contact Sanitizer Test, DIS/TSS-10 (Jan. 7, 1982). As noted in specific examples, a 30 second or 1 minute contact time using a glass slide test surface was used. As these formulas are to be used as one-step antimicrobial cleaners, fetal bovine serum was added to the innoculum at a concentration of 5.0 percent by weight to simulate an organic soil load such as one would expect to find on a typical non-food contact surface prior to cleaning.
(§2) Efficacy of the test solutions was evaluated versus Staphylococcus aureus (S. aureus), Klebsiella pneumoniae (K. pneumoniae), and Salmonella choleraesius (S. choleraesius). As a control, parallel tests were conducted using a 0.01 percent solution of Triton X-100 (isooctylphenoxyl-polyethoxyethanol with 9-10 moles of oxyethylene) in an identical manner as the test solutions. The results for the test solutions were compared to the control and are reported as “Log Kill” of the test organism versus the control counts in Table 2. A “Log Kill” of 5 means that 99.999 percent of the organism has been killed.

For the next data set, the system named is Klebsiella pneumoniae. The data set is described as above. The data set is classed as cell-based. The note with it: K. pneumoniae; dilute aqueous acidic solution; 1-minute contact. The protocol: as §1, §2
For data set [1] the following is noted: cited from earlier work.

On to `OCc1ccccc1` [BA, Benzyl Alcohol], for which the “antimicrobial synergy with low levels of organocarboxylic acids” value (“antimicrobial synergy with low levels” below) with Staphylococcus aureus and in the data set on Klebsiella pneumoniae was “enhanced biocidal efficacy” throughout. Besides, the “Solubility in water at 20-25° C.” value in data set [1] is listed as 3.8%.
Consider `CCOCCOCCO` [Carbitol, Diethylene Glycol Ethyl Ether], for which the “antimicrobial synergy with low levels” value with Staphylococcus aureus is recorded as “no significant antimicrobial synergy”. Moreover, the “antimicrobial synergy with low levels” value in the data set with Klebsiella pneumoniae is recorded as “no significant antimicrobial synergy”. For the same compound, in data set [1], the miscibility in water result is given as “completely miscible” and the “Solubility in water at 20-25° C.” value is recorded as “Infinite”.
Turning to `CCCCCCOCCOCCO` [DEGHE, Diethylene Glycol n-Hexyl Ether], the “antimicrobial synergy with low levels” value with Staphylococcus aureus and in the data set on Klebsiella pneumoniae was “enhanced biocidal efficacy” throughout.
For `COC(C)COC(C)CO` (centres unmarked) [DPM, Dipropylene Glycol Methyl Ether], the “antimicrobial synergy with low levels” value in the data set on Staphylococcus aureus and in the data set with Klebsiella pneumoniae was “no significant antimicrobial synergy” in each case. The miscibility in water result in data set [1] was “completely miscible”. For the same compound, the “Solubility in water at 20-25° C.” value in data set [1] is reported as “Infinite”.
Consider `CCCCCOCCO` [EGPE, Ethylene Glycol n-Pentyl Ether], for which the “antimicrobial synergy with low levels” value in the data set on Staphylococcus aureus and in the data set on Klebsiella pneumoniae was “enhanced biocidal efficacy” throughout. Besides, in data set [1], the “Solubility in water at 20-25° C.” value was 3.4%.
`OCCOc1ccccc1` [Eph, Ethylene Glycol Phenyl Ether]: the “antimicrobial synergy with low levels” value in the data set on Staphylococcus aureus and in the data set with Klebsiella pneumoniae was “enhanced biocidal efficacy” each time. Further, in data set [1], the “Solubility in water at 20-25° C.” value is recorded as 2.3%.
For the compound `CC(C)O` [IPA, Iso-propanol], the “antimicrobial synergy with low levels” value in the data set on Staphylococcus aureus is “no significant antimicrobial synergy”. Further, the “antimicrobial synergy with low levels” value with Klebsiella pneumoniae is recorded as “no significant antimicrobial synergy”. Moreover, in data set [1], the miscibility in water result is “completely miscible” and the “Solubility in water at 20-25° C.” value was “Infinite”.
